Source: US11332503B2, “Peptides for treatment and prevention of hyperglycaemia” (UNIVERSITE DE STRASBOURG, priority 2017, dated 2022)

Test system: human adipocytes
Assay: Glucose entry in human adipocytes after native or stapled peptide treatment (FIG. 4D-E)
Format: cell-based
Settings: native peptide, absence of insulin
Text: FIG. 4: In vitro characterization of two peptides for their glucose absorption triggering capacity. • (A) Representative picture depicting the cellular entry assessment of the mixture of FAM-labelled stapled peptides A (SEQ ID No 9) and B (SEQ ID No 11) in human adipocytes. DIC: Differential interference contrast mode for living cell acquisition in left panel. In right panel, fluorescent detection of the FAM-labelled peptide with the labelled plasma membrane (PM). • (B) 3D images of the cellular uptake of PATAD peptides identified in FIG. 3; either peptide A (left panel) or peptide B (right panel) treated adipocyte showing the spots inside the peptide inside the adipocyte. • (C) Photographs showing absorption of 2-NBDG in absence of INS in adipocytes following treatment with a combination of the stapled peptides A and B. • (D) Quantification of intracellular glucose analogue 2-NB in absence of INS in adipocytes following the indicated peptide treatment (n=8 per group). • (E) Quantification of intracellular glucose analogue 2-NB in presence of INS in adipocytes following the indicated peptide treatment (n=8 per group). […]
Mature adipocytes were cultured in 96 well plate. […] 24 hours later, the glucose absorption capacity if the treated cells were assessed using the Glucose Uptake Colorimetric Assay kit from Bio Vision (Catalog #: K676-100). […]

## SICKGLMTKHPAKRLGCGPEG (native or hydrocarbon-stapled; listed as Homo sapiens) [peptide B, PATAD peptide from human αPKC, tested native and stapled]
  entry of glucose into the adipocyte: significant entry of glucose
